Test results as given in USRE39114E1, “Expression of sucrose phosphorylase in plants” (Monsanto Technology LLC, priority 1995, dated 2006).

Assays:
[1] = system: OC[C@H]1O[C@@](CO)(O[C@H]2O[C@H](CO)[C@@H](O)[C@H](O)[C@H]2O)[C@@H](O)[C@@H]1O; assay: purified protein, by the assay type; settings: other: 25° C., pH 7.0, S. mutans SP
Description: (§2) The assay reaction mixture (1 ml final volume) contained 50 mM Hepes-NaOH pH 7.0, 50 mM sucrose, 5 mM MgCl2, 1 mM NADP, 20 mM Kpi monobasic pH 7.0 (50 mM for GtfA), 8 IU phosphoglucomutase, 2 IU glucose-6-phosphate dehydrogenase and appropriate amounts of Spl or GtfA. Production of NADPH was monitored spectrophotometrically at 340 nm. One unit of Spl or GtfA activity was defined as the amount of the enzyme which caused the reduction of 1 μmol of NADP per minute under the above conditions. A control reaction in which inorganic phosphate was omitted from the reaction mixture was always conducted for each Spl or GtfA assay.

[2] = target: T1, Leuconostoc mesenteroides sucrose phosphorylase (Spl, L. mesenteroides SP), wild type, gene spl SEQ ID NO:6 (Leuconostoc mesenteroides, UniProt Q59495); assay: Kinetic analysis of sucrose phosphorylase Spl (continuous coupled spectrophotometric assay); assay type: biochemical; settings: 25° C., pH 7.0, read-out: Km(Pi)
T1 construct: fragment containing the spl gene, encoding the Leuconostoc mesenteroides sucrose phosphorylase enzyme; made in house; host or cells: E. coli BL21 (DE3)
T1 sequence (Q59495 1-490): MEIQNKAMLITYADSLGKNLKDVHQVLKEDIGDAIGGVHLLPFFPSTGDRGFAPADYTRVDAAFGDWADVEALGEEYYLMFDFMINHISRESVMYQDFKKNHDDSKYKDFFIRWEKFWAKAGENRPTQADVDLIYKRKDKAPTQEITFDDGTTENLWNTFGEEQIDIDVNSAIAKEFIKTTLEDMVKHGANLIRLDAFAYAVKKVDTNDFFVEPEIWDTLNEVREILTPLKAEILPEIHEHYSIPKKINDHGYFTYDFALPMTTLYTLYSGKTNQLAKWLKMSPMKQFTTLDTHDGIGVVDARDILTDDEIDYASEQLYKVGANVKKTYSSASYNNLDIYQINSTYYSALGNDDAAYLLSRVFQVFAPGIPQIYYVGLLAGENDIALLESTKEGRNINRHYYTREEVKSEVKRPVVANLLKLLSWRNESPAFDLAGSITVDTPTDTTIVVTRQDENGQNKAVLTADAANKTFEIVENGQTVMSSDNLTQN
Description: (§3) In order to evaluate the kinetic properties of two sucrose phosphorylase enzymes, the sucrose phosphorylase genes from Streptococcus mutans and Leuconostoc mesenteroides were separately cloned into pET15 expression vectors so that they could be overexpressed in E. coli.
(§4) For the purification of sucrose phosphorylase (Spl or GtfA), colonies of cells containing the correct plasmid construct were picked and used to grow liquid cultures (under Ampicillin selection), induced with IPTG (all purification steps were conducted at 4° C.). After growing an induced cell culture, the bacterial cell pellet was spun down and suspended in Buffer A (50 mM Tris-HCl, pH 7.5, 1 mM EDTA, 5% glycerol and 40 μl/ml protease inhibitor cocktail, purchased from Boehringer Mannheim Cat.#1-697-498)and cells were lysed using a French Press. The cell lysate was clarified by centrifugation at 15,000 rpm for 10 minutes. Ammonium sulfate was added to the supernatant to reach 30% saturation, and the resultant mixture was then applied onto a phenyl-Sepharose 4B column which was pre-equilibrated with Buffer B (10 mM Tris-HCl, pH 8.0, 1 mM DTT and 1 mM EDTA) plus 20% (w/v) ammonium sulfate. […] Combined proteins were concentrated by precipitation with 70% saturation of ammonium sulfate followed by resuspension of the protein pellet in a small volume (2 or 4 ml) of Buffer C (10 mM Tris-HCl, 1 mM EDTA and 10% Glycerol). The sample was dialyzed in 2 liters of Buffer C two to three times (about 2 h for each) to completely remove ammonium sulfate prior to further purification. The dialyzed sample was injected into a Mono Q column which was pre-equilibrated with Buffer C. The sucrose phosphorylase was eluted from the column with a linear gradient of NaCl from 0 to 0.4 M in Buffer C.

[3] = target: Leuconostoc mesenteroides sucrose phosphorylase (Spl), gene spl SEQ ID NO:6 (Leuconostoc mesenteroides, UniProt Q59495); settings: 50 mM Pi, 100 mM sucrose, 35° C., pH 7.0
Description: (§1) To further characterize the sucrose phosphorylases from S. mutans and L. mesenteroides, plasmid constructs containing the spl or the gtfA genes were made for protoplast transformation. A 1461 bp NcoI/BamHI fragment, containing the gtfA gene was isolated by restriction digestion, gel purified, and ligated to a 4646 bp BamHI/NcoI vector fragment containing the enhanced 35S promoter (e35S; Kay et al., 1987), the HSP70 intron (U.S. Pat. No. 5,593,874), the Nopaline synthase 3′ region (Fraley et al., 1983), and a pUC vector derived backbone. A vector was thus created, containing the expression cassette [p-e35S/HSP70/gtfA/NOS3′]. After ligation, the plasmid constructs were transformed into competent DH5α cells, and the transformed cells were plated out on Ampicillin-containing medium. From the colonies that were formed, positive clones were identified by restriction digest. In a similar experiment a 1491bp NcoI/BamHI fragment, containing the spl gene, was isolated by restriction digestion, gel purified, and ligated to the same 4646bp BamHI/NcoI vector fragment (described above). After ligation, transformation of competent cells, and identification of positive clones, the resulting plasmid constructs were used for corn leaf protoplast transformation. Corn leaf protoplast transformation was performed essentially as described by Sheen J., 1991, with some modifications to the protocol.

[4] = target: Streptococcus mutans sucrose phosphorylase (GtfA), gene gtfA SEQ ID NO:5 (Streptococcus mutans serotype c, UniProt P10249); settings: 50 mM Pi, 100 mM sucrose, 35° C., pH 7.0
Description: as §1

[5] = target: T2, Streptococcus mutans sucrose phosphorylase (GtfA, S. mutans SP), wild type, gene gtfA SEQ ID NO:5 (Streptococcus mutans serotype c, UniProt P10249); settings: ratio to L. mesenteroides enzyme
Description: as §2

[6] = system: sucrose phosphorylase (microbial); settings: general statement, no method given; cited from earlier work
[7] = target: T2, Streptococcus mutans sucrose phosphorylase (GtfA, S. mutans SP), wild type, gene gtfA SEQ ID NO:5; set-up: fragment containing the gtfA gene coding for the Streptococcus mutans sucrose phosphorylase, was cloned into the expression vector pET15b; made in house; host or cells: E. coli BL21 (DE3); settings: compared with endogenous maize endosperm enzymes; in words; cited from earlier work
[8] = substrate: OC[C@H]1O[C@@](CO)(O[C@H]2O[C@H](CO)[C@@H](O)[C@H](O)[C@H]2O)[C@@H](O)[C@@H]1O; assay: Kinetic analysis of sucrose phosphorylase Spl (continuous coupled spectrophotometric assay); assay type: biochemical, Leuconostoc mesenteroides; settings: other: 25° C., pH 7.0, L. mesenteroides SP
Description: as §3, §4

T2 sequence (P10249 whole entry, looked up, change not shown): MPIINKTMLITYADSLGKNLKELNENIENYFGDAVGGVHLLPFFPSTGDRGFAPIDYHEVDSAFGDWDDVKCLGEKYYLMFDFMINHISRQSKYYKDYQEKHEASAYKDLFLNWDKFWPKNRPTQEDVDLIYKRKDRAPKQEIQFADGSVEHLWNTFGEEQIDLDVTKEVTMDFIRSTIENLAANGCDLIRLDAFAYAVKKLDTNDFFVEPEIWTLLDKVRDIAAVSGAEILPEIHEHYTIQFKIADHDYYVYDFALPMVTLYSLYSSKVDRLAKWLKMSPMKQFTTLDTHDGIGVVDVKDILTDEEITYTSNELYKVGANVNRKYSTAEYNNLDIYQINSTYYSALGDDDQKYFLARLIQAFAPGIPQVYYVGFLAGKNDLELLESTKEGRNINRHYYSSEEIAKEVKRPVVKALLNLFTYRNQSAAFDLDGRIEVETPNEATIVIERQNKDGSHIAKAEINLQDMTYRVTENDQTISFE
Chain of Streptococcus mutans sucrose phosphorylase (GtfA), gene gtfA SEQ ID NO:5 (P10249 whole entry, looked up, change not shown): as above

Streptococcus mutans sucrose phosphorylase (GtfA, S. mutans SP), wild type, gene gtfA SEQ ID NO:5 (Streptococcus mutans UA159)
Km [1]: 0.33 mM | Vmax [1]: 8.5 U/mg

O=P(O)(O)O [Pi, inorganic phosphate]
Km [2]: 4.88 mM | activity (% of optimal activity) [3]: about 80% | activity (% of optimal activity) [4]: 100%

OC[C@H]1O[C@@](CO)(O[C@H]2O[C@H](CO)[C@@H](O)[C@H](O)[C@H]2O)[C@@H](O)[C@@H]1O [sucrose]
Km(sucrose) of the S. mutans enzyme lower than that of the L. mesenteroides enzyme [5]: about 10 times lower | Vmax of S. mutans sucrose phosphorylase lower than that of the enzyme from L. mesenteroides [5]: about 9 times lower | Km [6]: 1 to 25 mM | Km of GftA for sucrose relative to the endogenous enzymes [7]: lower Km

B1: Leuconostoc mesenteroides sucrose phosphorylase (Spl, L. mesenteroides SP), wild type, gene spl SEQ ID NO:6 (Leuconostoc mesenteroides) (protein)
chain: T1 sequence (Q59495 1-490)
notes: fragment containing the spl gene, encoding the Leuconostoc mesenteroides sucrose phosphorylase enzyme; made in house; host or cells: E. coli BL21 (DE3)
Km [8]: 3.39 mM | Vmax [8]: 71.3 U/mg
